Results reported in the NIST ThermoML archive (doi:10.1021/je200872n).
± gives the expanded uncertainty stated by the source. Each block holds one compound with its values, some of them ahead of it.

Assays:
[1] = 298.15 K, Liquid
[2] = refractive index (Na D-line) (dimensionless); conditions: 298.15 K; 101.33 kPa; Liquid; Standard Abbe refractometry
[3] = mn = molality of the nth substance listed, in mol/kg; conditions: 298.15 K, 101 kPa, Liquid; for viscosity: Capillary tube (Ostwald / Ubbelohde) method; for mass density: Vibrating tube method

Compound: Oc1ccccc1C=Nc1ccccc1N=Cc1ccccc1O [2,2'-[1,2-phenylenebis(nitrilomethylidyne)]bis-phenol] + CN(C)C=O
- viscosity ([3]; m1 = 0.01): 0.802 ± 0.008 mPa·s
- viscosity ([3]; m1 = 0.0302): 0.818 ± 0.008 mPa·s
- viscosity ([3]; m1 = 0.0505): 0.833 ± 0.008 mPa·s
- viscosity ([3]; m1 = 0.0698): 0.847 ± 0.008 mPa·s
- viscosity ([3]; m1 = 0.0851): 0.859 ± 0.008 mPa·s
- viscosity ([3]; m1 = 0.1098): 0.878 ± 0.008 mPa·s
- viscosity ([3]; m1 = 0.1268): 0.89 ± 0.008 mPa·s
- viscosity ([3]; m1 = 0.1507): 0.905 ± 0.008 mPa·s
- viscosity ([3]; m1 = 0.1705): 0.919 ± 0.008 mPa·s
- mass density ([3]; m1 = 0.0295): 946.01 ± 0.46 kg/m3
- mass density ([3]; m1 = 0.051): 947.47 ± 0.46 kg/m3
- mass density ([3]; m1 = 0.0697): 948.75 ± 0.46 kg/m3
- mass density ([3]; m1 = 0.0894): 950.08 ± 0.46 kg/m3
- mass density ([3]; m1 = 0.1106): 951.51 ± 0.46 kg/m3
- mass density ([3]; m1 = 0.1299): 952.82 ± 0.46 kg/m3
- mass density ([3]; m1 = 0.1465): 953.94 ± 0.46 kg/m3
- mass density ([3]; m1 = 0.1701): 955.51 ± 0.46 kg/m3
- mass density ([3]; m1 = 0.1898): 956.83 ± 0.46 kg/m3

Compound: CCCCCCn1cc[n+](C)c1.[Br-] [3-hexyl-1-methyl-1H-imidazolium bromide] + CN(C)C=O
- mass density ([3]; m1 = 0.0245): 945.76 ± 0.46 kg/m3
- mass density ([3]; m1 = 0.0738): 948.9 ± 0.46 kg/m3
- mass density ([3]; m1 = 0.1205): 951.72 ± 0.46 kg/m3

Compound: CCCCn1cc[n+](C)c1.[Br-] [1-butyl-3-methylimidazolium bromide] + CN(C)C=O
- mass density ([3]; m1 = 0.1012): 951.01 ± 0.46 kg/m3
- mass density ([3]; m1 = 0.1527): 954.4 ± 0.46 kg/m3
- mass density ([3]; m1 = 0.197): 957.2 ± 0.46 kg/m3

Compound: CCCCCn1cc[n+](C)c1.[Br-] [1-pentyl-3-methylimidazolium bromide] + CN(C)C=O
- mass density ([3]; m1 = 0.026): 947.47 ± 0.46 kg/m3
- mass density ([3]; m1 = 0.0508): 949.26 ± 0.46 kg/m3
- mass density ([3]; m1 = 0.0747): 950.79 ± 0.46 kg/m3

Now from value to compound:

- mass density ([1]; 101 kPa, Vibrating tube method): 944 ± 0.46 kg/m3
- viscosity ([1]; 101.33 kPa, Capillary tube (Ostwald / Ubbelohde) method): 0.805 ± 0.008 mPa·s
- refractive index [2]: 1.4281 ± 0.0004
Compound: CN(C)C=O [dimethylformamide]

- mass density ([3]; m1 = 0.03): 946.19 ± 0.46 kg/m3
- mass density ([3]; m1 = 0.0789): 949.63 ± 0.46 kg/m3
- mass density ([3]; m1 = 0.122): 952.52 ± 0.46 kg/m3
Compound: CCC[n+]1ccn(C)c1.[Br-] [1-methyl-3-propylimidazolium bromide] + CN(C)C=O
